≈ marks a conversion by molar mass, not a printed value. Where two headings read alike, the source gives them in different places. Numbered stars: 1 amine (or outer) side, 2 acyl side, 3 side chain; on linkers, the order of the positions; unused ones are H or OH. Bridge positions count the residues as written; N and C are the ends. Square brackets hold non-standard residues; d marks the D form. Peptide text beside a SMILES is read from it. * marks the point of attachment. ξ: configuration not given here. X12 = O=C([C@@H](Cc1ccc(C2CCCCC2)cc1)N[*:1])[*:2]; dBip = N[C@H](Cc1ccc(-c2ccccc2)cc1)C(=O)O; X13 = NCC[C@H](OCc1ccc(Cl)cc1)C(=O)*; Octanoyl(6-Me) = CCC(C)CCCCC(=O)*; X3 = CCCCCCCCN1CCNC[C@H]1C(=O)*; dCha = N[C@H](CC1CCCCC1)C(=O)O; Thr(3ξ) = CC(O)[C@H](N)C(=O)O; X1 = CC(C)CN1CCNC[C@H]1C(=O)*; X7 = NCC(CC(=O)*)c1ccccc1; X8 = NCC(C(=O)*)C1CCCCC1; Dab = NCC[C@H](N)C(=O)O; Dap = NC[C@H](N)C(=O)O; X2 = CC(C)CC(CN)C(=O)*
Tests used:
Assay type in all cases: cell-based
Acinetobacter baumannii = tested on: Acinetobacter baumannii
Method in brief: (§1)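 Values are minimum inhibitory concentrations in μg/mL, measured across a panel of up to nine strains of each Gram-negative pathogen, some Polymyxin-elevated or resistant.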

Escherichia coli = tested on: Escherichia coli
Method in brief: as §1

Klebsiella pneumoniae = tested on: Klebsiella pneumoniae
Method in brief: as §1

Pseudomonas aeruginosa = tested on: Pseudomonas aeruginosa
Method in brief: as §1

HK-2 cells = tested on: HK-2 cells
Description: Values are reported relative to Polymyxin B.

Compound	MIC A. baumanii 053 (Acinetobacter baumannii)	MIC A. baumanii 056 (Acinetobacter baumannii)	MIC A. baumanii ATCC BAA-747 (Acinetobacter baumannii)	MIC E. coli 058 (Escherichia coli)	MIC E. coli 059 (Escherichia coli)	MIC E. coli 060 (Escherichia coli)	MIC E. coli 061 (Escherichia coli)	MIC E. coli ATCC 25922 (Escherichia coli)	MIC K. pneumoniae 063 (Klebsiella pneumoniae)	MIC K. pneumoniae 064 (Klebsiella pneumoniae)	MIC K. pneumoniae 065 (Klebsiella pneumoniae)	MIC K. pneumoniae 066 (Klebsiella pneumoniae)	MIC K. pneumoniae 067 (Klebsiella pneumoniae)	MIC K. pneumoniae ATCC 4352 (Klebsiella pneumoniae)	MIC P. aeruginosa 068 (Pseudomonas aeruginosa)	MIC P. aeruginosa 070 (Pseudomonas aeruginosa)	MIC P. aeruginosa ATCC 27853 (Pseudomonas aeruginosa)	HK-2 IC50 (HK-2 cells)	MIC A. baumanii NCTC 13424 (Acinetobacter baumannii)	MIC P. aeruginosa CCUG 59347 (Pseudomonas aeruginosa)	further results
CCC(C)CCCCC(=O)N[C@@H](CCN)C(=O)N[C@H](C(=O)N[C@@H](CCN)C(=O)N[C@H]1CCNC(=O)[C@H](C(C)O)NC(=O)[C@H](CCN)NC(=O)[C@H](CCN)NC(=O)[C@H](CC(C)C)NC(=O)[C@@H](CC2CCCCC2)NC(=O)[C@H](CCN)NC1=O)C(C)O (some centres unmarked) [Example 22] ({Octanoyl(6-Me)}-[Dab][Thr(3ξ)][Dab][Dab][Dab][dCha]L[Dab][Dab][Thr(3ξ)]; lactam 4-C)	64 µg/mL (≈ 52.9 µM)	32 µg/mL (≈ 26.5 µM)	0.5 µg/mL (≈ 0.413 µM)	2 µg/mL (≈ 1.65 µM)	2 µg/mL (≈ 1.65 µM)	4 µg/mL (≈ 3.31 µM)	8 µg/mL (≈ 6.61 µM)	0.5 µg/mL (≈ 0.413 µM)	32 µg/mL (≈ 26.5 µM)	4 µg/mL (≈ 3.31 µM)	1 µg/mL (≈ 0.827 µM)	4 µg/mL (≈ 3.31 µM)	64 µg/mL (≈ 52.9 µM)	0.5 µg/mL (≈ 0.413 µM)	4 µg/mL (≈ 3.31 µM)	4 µg/mL (≈ 3.31 µM)	1 µg/mL (≈ 0.827 µM)	17 µg/mL			MIC K. pneumoniae 062 (Klebsiella pneumoniae): 16 µg/mL (≈ 13.2 µM)
CC(C)CC(CN)C(=O)N[C@H](C(=O)N[C@@H](CN)C(=O)N[C@H]1CCNC(=O)[C@H]([C@@H](C)O)NC(=O)[C@H](CCN)NC(=O)[C@H](CCN)NC(=O)[C@H](CC(C)C)NC(=O)[C@@H](Cc2ccc(C3CCCCC3)cc2)NC(=O)[C@H](CCN)NC1=O)C(C)O (stereo partly drawn) [Example 27, 2-(Aminomethyl)-4-methylpentanoyl L-Thr-L-Dap-polymyxin [D-(4-cyclohexyl Phe)]-6 heptapeptide] (X2-[Thr(3ξ)][Dap][Dab][Dab][X12]L[Dab][Dab]T; lactam 3-C)	8 µg/mL (≈ 6.91 µM)	4 µg/mL (≈ 3.45 µM)	0.5 µg/mL (≈ 0.432 µM)	2 µg/mL (≈ 1.73 µM)			8 µg/mL (≈ 6.91 µM)	0.5 µg/mL (≈ 0.432 µM)	8 µg/mL (≈ 6.91 µM)		0.5 µg/mL (≈ 0.432 µM)			0.25 µg/mL (≈ 0.216 µM)	4 µg/mL (≈ 3.45 µM)	2 µg/mL (≈ 1.73 µM)	0.5 µg/mL (≈ 0.432 µM)	18 µg/mL	0.25 µg/mL (≈ 0.216 µM)	1 µg/mL (≈ 0.863 µM)	MIC E. coli NCTC 9001 (Escherichia coli): 0.5 µg/mL (≈ 0.432 µM)
CC(C)C[C@@H]1NC(=O)[C@@H](CC2CCCCC2)NC(=O)[C@H](CCN)NC(=O)[C@@H](NC(=O)[C@H](CN)NC(=O)[C@@H](NC(=O)C(CN)C2CCCCC2)C(C)O)CCNC(=O)[C@H]([C@@H](C)O)NC(=O)[C@H](CCN)NC(=O)[C@H](CCN)NC1=O (stereo partly drawn) [Example 28, 3-Amino-2-cyclohexylpropanoyl L-Thr-L-Dap-polymyxin [D-cyclohexylalanine]-6 heptapeptide] (X8-[Thr(3ξ)][Dap][Dab][Dab][dCha]L[Dab][Dab]T; lactam 3-C)	16 µg/mL (≈ 14.4 µM)	4 µg/mL (≈ 3.61 µM)	0.06 µg/mL (≈ 0.0541 µM)	1 µg/mL (≈ 0.902 µM)			8 µg/mL (≈ 7.22 µM)	0.25 µg/mL (≈ 0.226 µM)	8 µg/mL (≈ 7.22 µM)		1 µg/mL (≈ 0.902 µM)			0.125 µg/mL (≈ 0.113 µM)	4 µg/mL (≈ 3.61 µM)	4 µg/mL (≈ 3.61 µM)	0.25 µg/mL (≈ 0.226 µM)	86 µg/mL	0.125 µg/mL (≈ 0.113 µM)	0.5 µg/mL (≈ 0.451 µM)	MIC E. coli NCTC 9001 (Escherichia coli): 0.125 µg/mL (≈ 0.113 µM)
CCCCCCCCN1CCNC[C@H]1C(=O)N[C@H](C(=O)N[C@@H](CN)C(=O)N[C@H]1CCNC(=O)[C@H]([C@@H](C)O)NC(=O)[C@H](CCN)NC(=O)[C@H](CCN)NC(=O)[C@H](CC(C)C)NC(=O)[C@@H](Cc2ccc(-c3ccccc3)cc2)NC(=O)[C@H](CCN)NC1=O)C(C)O (stereo partly drawn) [Example 30, (S)-1-Octylpiperazine-2-carbonyl L-Thr-L-Dap-polymyxin [D-(4-phenyl Phe)]-6 heptapeptide.] (X3-[Thr(3ξ)][Dap][Dab][Dab][dBip]L[Dab][Dab]T; lactam 3-C)	4 µg/mL (≈ 3.2 µM)	2 µg/mL (≈ 1.6 µM)	1 µg/mL (≈ 0.8 µM)	1 µg/mL (≈ 0.8 µM)			2 µg/mL (≈ 1.6 µM)	1 µg/mL (≈ 0.8 µM)	4 µg/mL (≈ 3.2 µM)		1 µg/mL (≈ 0.8 µM)			1 µg/mL (≈ 0.8 µM)	2 µg/mL (≈ 1.6 µM)	2 µg/mL (≈ 1.6 µM)	1 µg/mL (≈ 0.8 µM)	4 µg/mL	2 µg/mL (≈ 1.6 µM)	2 µg/mL (≈ 1.6 µM)	MIC K. pneumoniae ATCC 13882 (Klebsiella pneumoniae): 1 µg/mL (≈ 0.8 µM)
CC(C)C[C@@H]1NC(=O)[C@@H](CC2CCCCC2)NC(=O)[C@H](CCN)NC(=O)[C@@H](NC(=O)[C@H](CN)NC(=O)[C@@H](NC(=O)CC(CN)c2ccccc2)C(C)O)CCNC(=O)[C@H]([C@@H](C)O)NC(=O)[C@H](CCN)NC(=O)[C@H](CCN)NC1=O (stereo partly drawn) [Example 39, 4-amino-3-phenylbutanoyl L-Thr-L-Dap-polymyxin [D-cyclohexylalanine]-6 heptapeptide.] (X7-[Thr(3ξ)][Dap][Dab][Dab][dCha]L[Dab][Dab]T; lactam 3-C)																					MIC A. baumanii 053 (Acinetobacter baumannii; strain 053): 32 µg/mL (≈ 28.7 µM); MIC A. baumanii 056 (Acinetobacter baumannii; strain 056): 64 µg/mL (≈ 57.3 µM); MIC A. baumanii ATCC BAA-747 (Acinetobacter baumannii; strain ATCC BAA-747): 0.06 µg/mL (≈ 0.0537 µM); MIC A. baumanii NCTC 13424 (Acinetobacter baumannii; strain NCTC 13424): 0.03 µg/mL (≈ 0.0269 µM); MIC E. coli 058 (Escherichia coli; strain 058): 4 µg/mL (≈ 3.58 µM); MIC E. coli 061 (Escherichia coli; strain 061): 32 µg/mL (≈ 28.7 µM); MIC E. coli ATCC 25922 (Escherichia coli; strain ATCC 25922): 0.125 µg/mL (≈ 0.112 µM); MIC E. coli NCTC 9001 (Escherichia coli; strain NCTC 9001): 0.06 µg/mL (≈ 0.0537 µM); MIC K. pneumoniae 063 (Klebsiella pneumoniae; strain 063): 64 µg/mL (≈ 57.3 µM); MIC K. pneumoniae 065 (Klebsiella pneumoniae; strain 065): 4 µg/mL (≈ 3.58 µM); MIC K. pneumoniae ATCC 13882 (Klebsiella pneumoniae; strain ATCC 13882): 0.125 µg/mL (≈ 0.112 µM); MIC P. aeruginosa 068 (Pseudomonas aeruginosa; strain 068): 4 µg/mL (≈ 3.58 µM); MIC P. aeruginosa 070 (Pseudomonas aeruginosa; strain 070): 4 µg/mL (≈ 3.58 µM); MIC P. aeruginosa ATCC 27853 (Pseudomonas aeruginosa; strain ATCC 27853): 0.5 µg/mL (≈ 0.448 µM); MIC P. aeruginosa CCUG 59347 (Pseudomonas aeruginosa; strain CCUG 59347): 0.5 µg/mL (≈ 0.448 µM); HK-2 IC50 (HK-2 cells; HK-2 cells): 337 µg/mL
CC(C)C[C@@H]1NC(=O)[C@@H](CC2CCCCC2)NC(=O)[C@H](CCN)NC(=O)[C@@H](NC(=O)[C@H](CN)NC(=O)[C@@H](NC(=O)[C@H](CCN)OCc2ccc(Cl)cc2)[C@@H](C)O)CCNC(=O)[C@H]([C@@H](C)O)NC(=O)[C@H](CCN)NC(=O)[C@H](CCN)NC1=O [Example 74, (S)-4-amino-2-((4-chlorobenzyl)oxy) butanoyl L-Thr-L-Dap-polymyxin [D-cyclohexylalanine]-6 heptapeptide.] (X13-T[Dap][Dab][Dab][dCha]L[Dab][Dab]T; lactam 3-C)	32 µg/mL (≈ 27.1 µM)	32 µg/mL (≈ 27.1 µM)	0.125 µg/mL (≈ 0.106 µM)	2 µg/mL (≈ 1.69 µM)			16 µg/mL (≈ 13.5 µM)	0.125 µg/mL (≈ 0.106 µM)	16 µg/mL (≈ 13.5 µM)		2 µg/mL (≈ 1.69 µM)				4 µg/mL (≈ 3.39 µM)	4 µg/mL (≈ 3.39 µM)	0.25 µg/mL (≈ 0.212 µM)	52 µg/mL	0.125 µg/mL (≈ 0.106 µM)	0.25 µg/mL (≈ 0.212 µM)	MIC K. pneumoniae ATCC 13882 (Klebsiella pneumoniae): 0.25 µg/mL (≈ 0.212 µM)
CC(C)C[C@@H]1NC(=O)[C@@H](Cc2ccccc2)NC(=O)[C@H](CCN)NC(=O)[C@@H](NC(=O)[C@H](CN)NC(=O)[C@@H](NC(=O)[C@@H]2CNCCN2CC(C)C)C(C)O)CCNC(=O)[C@H]([C@@H](C)O)NC(=O)[C@H](CCN)NC(=O)[C@H](CCN)NC1=O (stereo partly drawn) [Example C2, (S)-1-isobutyl piperazine-2-carbonyl-L-Thr-L-Dap-polymyxin B heptapeptide, reference compound] (X1-[Thr(3ξ)][Dap][Dab][Dab][dF]L[Dab][Dab]T; lactam 3-C)	>256 µg/mL	256 µg/mL (≈ 229 µM)	0.25 µg/mL (≈ 0.224 µM)	8 µg/mL (≈ 7.16 µM)	16 µg/mL (≈ 14.3 µM)	8 µg/mL (≈ 7.16 µM)	32 µg/mL (≈ 28.6 µM)	0.25 µg/mL (≈ 0.224 µM)	128 µg/mL (≈ 115 µM)	32 µg/mL (≈ 28.6 µM)	16 µg/mL (≈ 14.3 µM)	32 µg/mL (≈ 28.6 µM)	>256 µg/mL	0.125 µg/mL (≈ 0.112 µM)	32 µg/mL (≈ 28.6 µM)		0.5 µg/mL (≈ 0.447 µM)	316 µg/mL			
CCC(C)CCCCC(=O)N[C@@H](CCN)C(=O)N[C@H](C(=O)N[C@@H](CCN)C(=O)N[C@H]1CCNC(=O)[C@H]([C@@H](C)O)NC(=O)[C@H](CCN)NC(=O)[C@H](CCN)NC(=O)[C@H](CC(C)C)NC(=O)[C@@H](Cc2ccc(-c3ccccc3)cc2)NC(=O)[C@H](CCN)NC1=O)C(C)O (some centres unmarked) [Example C3, reference compound] ({Octanoyl(6-Me)}-[Dab][Thr(3ξ)][Dab][Dab][Dab][dBip]L[Dab][Dab]T; lactam 4-C)	16 µg/mL (≈ 12.5 µM)	16 µg/mL (≈ 12.5 µM)	1 µg/mL (≈ 0.781 µM)	2 µg/mL (≈ 1.56 µM)	1 µg/mL (≈ 0.781 µM)	4 µg/mL (≈ 3.13 µM)	8 µg/mL (≈ 6.25 µM)	0.5 µg/mL (≈ 0.391 µM)	8 µg/mL (≈ 6.25 µM)	4 µg/mL (≈ 3.13 µM)	0.5 µg/mL (≈ 0.391 µM)	4 µg/mL (≈ 3.13 µM)	32 µg/mL (≈ 25 µM)	0.5 µg/mL (≈ 0.391 µM)	2 µg/mL (≈ 1.56 µM)	4 µg/mL (≈ 3.13 µM)	1 µg/mL (≈ 0.781 µM)	3 µg/mL			MIC K. pneumoniae 062 (Klebsiella pneumoniae): 32 µg/mL (≈ 25 µM)
